Bounds are passed on as bounds.

Experimental findings from ChEMBL document CHEMBL1149423, “Novel phenylamino acetamide derivatives as potent and selective kappa opioid receptor agonists” (Bioorg Med Chem Lett, 2006) are described below.

The target in assay [1] is T1, Kappa-type opioid receptor (Homo sapiens, UniProt P41145). Put plainly: Binding affinity to kappa opioid receptor.
For assay [2], the target named is T1, Kappa-type opioid receptor. Put plainly: Agonist activity at kappa opioid receptor in a [35S]GTP-gamma-S functional assay.
Assay [3] addresses Opioid receptors; mu & kappa (Homo sapiens) (UniProt P41145+P35372). Put plainly: Selectivity for kappa opioid receptor over mu opioid receptor. The assay is classed as protein assay.
For assay [4], the target named is Opioid receptors; delta & kappa (Homo sapiens) (UniProt P41145+P41143). Put plainly: Selectivity for kappa opioid receptor over delta opioid receptor. In kind it is protein assay.
Opioid receptors; delta & kappa (Homo sapiens), sequence (P41143 whole entry, looked up): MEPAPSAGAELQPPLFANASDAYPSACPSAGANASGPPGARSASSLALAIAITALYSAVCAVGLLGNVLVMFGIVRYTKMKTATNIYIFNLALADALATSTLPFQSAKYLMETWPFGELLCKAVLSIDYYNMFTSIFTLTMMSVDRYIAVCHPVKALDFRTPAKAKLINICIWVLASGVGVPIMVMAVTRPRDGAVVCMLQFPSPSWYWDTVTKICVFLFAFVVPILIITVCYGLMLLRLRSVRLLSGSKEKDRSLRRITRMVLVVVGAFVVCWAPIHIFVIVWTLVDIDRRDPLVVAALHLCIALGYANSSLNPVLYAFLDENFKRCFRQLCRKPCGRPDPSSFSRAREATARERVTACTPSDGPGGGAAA
Opioid receptors; delta & kappa (Homo sapiens), sequence (P41145 whole entry, looked up): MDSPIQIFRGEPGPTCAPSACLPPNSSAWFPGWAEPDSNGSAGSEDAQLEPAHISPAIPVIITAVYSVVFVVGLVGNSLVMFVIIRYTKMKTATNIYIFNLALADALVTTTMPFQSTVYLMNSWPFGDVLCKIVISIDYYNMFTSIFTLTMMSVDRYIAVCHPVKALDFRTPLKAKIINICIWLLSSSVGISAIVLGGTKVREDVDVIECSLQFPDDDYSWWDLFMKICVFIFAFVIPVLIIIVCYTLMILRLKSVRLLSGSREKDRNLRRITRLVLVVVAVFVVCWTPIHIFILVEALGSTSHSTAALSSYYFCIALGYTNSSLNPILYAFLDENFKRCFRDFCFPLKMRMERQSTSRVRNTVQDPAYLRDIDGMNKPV
The target of the next assay is Cytochrome P450 2D6 (Homo sapiens, UniProt P10635). Put plainly: Inhibitory activity against CYP2D6. In kind it is ADME.
Cytochrome P450 2D6, sequence (P10635 whole entry): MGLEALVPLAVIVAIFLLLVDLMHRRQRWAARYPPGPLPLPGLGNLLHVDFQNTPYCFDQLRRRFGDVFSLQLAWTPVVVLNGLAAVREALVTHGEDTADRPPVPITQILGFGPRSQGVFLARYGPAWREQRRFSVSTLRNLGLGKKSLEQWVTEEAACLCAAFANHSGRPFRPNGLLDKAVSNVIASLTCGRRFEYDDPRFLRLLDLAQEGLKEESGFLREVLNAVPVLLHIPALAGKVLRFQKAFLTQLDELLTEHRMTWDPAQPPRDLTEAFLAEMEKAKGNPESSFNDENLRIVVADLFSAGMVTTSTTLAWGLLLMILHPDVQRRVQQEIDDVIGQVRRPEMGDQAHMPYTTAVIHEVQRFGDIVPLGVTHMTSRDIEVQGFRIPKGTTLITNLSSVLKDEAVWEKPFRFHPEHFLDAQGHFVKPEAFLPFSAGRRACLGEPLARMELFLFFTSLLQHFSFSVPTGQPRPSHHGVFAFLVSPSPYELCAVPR
For a further assay, the species on record is Rattus norvegicus. Put plainly: Antinociception in rat at 300 ug given intrapaw in late phase formalin-induced flinching assay. The assay is classed as functional.
Another assay relates to Mus musculus. Put plainly: Inhibition of acetic acid-induced writhing in mice after sc administration. In kind it is functional. (In writhing tests, fewer writhes than in controls are read as antinociception.)
A further assay deals with Mu-type opioid receptor (Homo sapiens, UniProt P35372). The experiment in a line: Binding affinity to mu opioid receptor.
Mu-type opioid receptor, sequence (P35372 whole entry): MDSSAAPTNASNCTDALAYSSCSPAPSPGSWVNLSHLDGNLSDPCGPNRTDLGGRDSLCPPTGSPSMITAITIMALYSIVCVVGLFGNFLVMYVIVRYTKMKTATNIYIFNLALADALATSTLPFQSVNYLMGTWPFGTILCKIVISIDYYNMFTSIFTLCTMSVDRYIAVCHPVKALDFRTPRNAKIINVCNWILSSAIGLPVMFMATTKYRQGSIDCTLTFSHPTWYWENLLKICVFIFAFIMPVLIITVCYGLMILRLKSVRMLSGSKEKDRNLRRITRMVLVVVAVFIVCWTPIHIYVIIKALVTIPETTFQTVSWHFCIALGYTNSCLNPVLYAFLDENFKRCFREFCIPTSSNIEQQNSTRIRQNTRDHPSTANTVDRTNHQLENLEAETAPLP

T1 sequence (P41145 whole entry): as the sequence (P41145 whole entry, looked up) above
Opioid receptors; mu & kappa (Homo sapiens), sequence (P35372 whole entry, looked up): as the sequence (P35372 whole entry) above
Opioid receptors; mu & kappa (Homo sapiens), sequence (P41145 whole entry, looked up): as the sequence (P41145 whole entry, looked up) above

Turning to `CN(C(=O)CNc1cccc(C#N)c1)[C@H](CN1CC[C@H](O)C1)c1ccccc1`, the Ki (commonly a dissociation constant, usually derived from enzyme kinetics or from competition with a known ligand) in assay [1] was 0.5 nM. In assay [2], it took 0.58 nM to reach a half-maximal effect (EC50). For the same compound, the Ratio stood at 1140 in assay [3] and 66 in assay [4]. Besides, at Cytochrome P450 2D6, the IC50 – broadly, the concentration at which inhibition is half-maximal – was determined as 3000 nM.
The like results for `CCCS(=O)(=O)Nc1ccc(NCC(=O)N(C)[C@H](CN2CC[C@H](O)C2)c2ccccc2)cc1` were, in that order, 1.5 nM, 8.3 nM, 1000, 87 and 9000 nM.
`CN(CC(=O)N(C)[C@H](CN1CC[C@H](O)C1)c1ccccc1)c1ccc(C#N)cc1` returned an inhibition constant (Ki) in assay [1] of 1 nM. Further, the EC50 (usually the concentration that produces a half-maximal response) in assay [2] came out at 2.3 nM. Further, the Ratio in assay [3] came out at 250; in assay [4] it was 180. The same compound yielded an IC50 against Cytochrome P450 2D6 of 670 nM.
Take `CN(C(=O)CNc1ccc(Cl)c(Cl)c1)[C@H](CN1CC[C@H](O)C1)c1ccccc1`: affinity in assay [1] was put at a Ki of 0.11 nM. Further, it took 0.27 nM to reach a half-maximal effect in assay [2] (EC50). Further, the Ratio in assay [3] is 427; in assay [4], 91. The half-maximal inhibitory concentration (IC50) on Cytochrome P450 2D6 was 760 nM.
The like results for `CN(CC(=O)N(C)[C@H](CN1CC[C@H](O)C1)c1ccccc1)c1ccccc1` were, in that order, 0.32 nM, 0.23 nM, 1660, 169 and 530 nM.
As to `CN(C(=O)CNc1ccccc1)[C@H](CN1CC[C@H](O)C1)c1ccccc1`, in the assay listed under Rattus norvegicus, the Activity was found to be 96.2%. In the assay on Mus musculus, the ED50 (in general, the dose that gives a 50% effect, or the effect in half of the subjects) worked out at 0.017 mg/kg. Further, the Ratio in assay [3] came out at 5880; in assay [4], 512. Moreover, the IC50 at Cytochrome P450 2D6 is 4100 nM.
Consider `CN(C(=O)CNc1ccccc1C#N)[C@H](CN1CC[C@H](O)C1)c1ccccc1`, for which, in assay [1], the Ki is 0.39 nM. Besides, the EC50 in assay [2] was found to be 0.42 nM. In addition, the Ratio in assay [3] is 667; in assay [4] it was 49. The same compound showed an IC50 against Cytochrome P450 2D6 of 510 nM.
In the case of `CN(C(=O)CNc1ccc([N+](=O)[O-])cc1)[C@H](CN1CC[C@H](O)C1)c1ccccc1`, the Ki in assay [1] stood at 0.21 nM. The compound further returned an EC50 in assay [2] of 0.23 nM. The values for the Ratio in assay [3] and in assay [4] were 905 and 119, respectively. At Cytochrome P450 2D6, this compound gave an IC50 of 3400 nM.
Consider `CN(C(=O)CNc1cccc(CNS(C)(=O)=O)c1)[C@H](CN1CC[C@H](O)C1)c1ccccc1`, for which, in assay [1], the Ki is 3.9 nM. Also, the EC50 in assay [2] was found to be 4.8 nM. The Ratio in assay [3] and in assay [4] was 38 throughout. The compound also registered an IC50 against Cytochrome P450 2D6 of 8700 nM.
In turn, `CN(C(=O)CNc1ccc(C#N)cc1)[C@H](CN1CC[C@H](O)C1)c1ccccc1` gave a Ki in assay [1] of 0.66 nM. In addition, the EC50 in assay [2] worked out at 0.49 nM. The figures for the Ratio in assay [3] and in assay [4] were 833 and 409, respectively. The IC50 at Cytochrome P450 2D6 came to 2500 nM.
For the compound `CN(C(=O)CNc1ccc(C(F)(F)F)cc1)[C@H](CN1CC[C@H](O)C1)c1ccccc1`, the Ki in assay [1] was determined as 0.39 nM. This compound yielded an EC50 in assay [2] of 0.8 nM. In addition, the Ratio was determined as 385 in assay [3] and 256 in assay [4]. The compound further had an IC50 against Cytochrome P450 2D6 of 190 nM.
The compound `CN(C(=O)CNc1ccccc1CNS(C)(=O)=O)[C@H](CN1CC[C@H](O)C1)c1ccccc1` came in with a Ki in assay [1] of 0.78 nM. In assay [2], the EC50 amounted to 0.52 nM. Further, the figures for the Ratio in assay [3] and in assay [4] were 85 and 10, respectively. This compound also displayed an IC50 against Cytochrome P450 2D6 of 1500 nM.
For `CN(C(=O)CNc1ccc(NS(C)(=O)=O)cc1)[C@H](CN1CC[C@H](O)C1)c1ccccc1`, the Ki was 5.7 nM in assay [1] and greater than 5000 nM on Mu-type opioid receptor. The EC50 in assay [2] was determined as 14 nM. The values for the Ratio in assay [3] and in assay [4] were greater than 877 and 47, respectively.
As for `CN(C(=O)CNc1ccc(CNS(C)(=O)=O)cc1)[C@H](CN1CC[C@H](O)C1)c1ccccc1`, in assay [1], the Ki amounted to 16 nM. Moreover, the EC50 in assay [2] amounted to 24 nM. Further, the Ratio came to 81 in assay [3] and 119 in assay [4]. The compound also returned an IC50 against Cytochrome P450 2D6 of 8000 nM.
`CC(=O)N(CC(=O)N(C)[C@H](CN1CC[C@H](O)C1)c1ccccc1)c1ccccc1`: the values for the Ki (in assay [1]; on Mu-type opioid receptor) were 3.8 nM and greater than 5000 nM, respectively. The same compound yielded an EC50 in assay [2] of 7.4 nM. The Ratio in assay [3] was greater than 1320; in assay [4], 342. Also, the IC50 against Cytochrome P450 2D6 was 300 nM.
